In the NIST ThermoML archive (doi:10.1007/s10765-006-0122-6):

Conditions: for kinematic viscosity / surface tension liquid-gas: surface light scattering; for speed of sound / thermal diffusivity: dynamic light scattering

FC(C(F)(F)F)C(F)(F)F [1,1,1,2,3,3,3-heptafluoropropane]
Conditions	Critical temperature [K]	kinematic viscosity [m2/s]	speed of sound [m/s]	surface tension liquid-gas [mN/m]	thermal diffusivity [m2/s]
253.15 K, Liquid	–	2.88e-07	–	12.26	–
263.15 K, Liquid	–	2.54e-07	–	10.96	–
273.15 K, Liquid	–	2.28e-07	–	9.76	–
283.15 K, Liquid	–	2.05e-07	–	8.62	–
293.15 K, Liquid	–	1.83e-07	–	7.46	–
293.22 K, Liquid	–	–	437.4	–	3.66e-08
303.12 K, Liquid	–	–	397.8	–	3.5e-08
303.15 K, Liquid	–	1.66e-07	–	6.31	–
313.15 K, Liquid	–	1.52e-07	–	5.25	–
313.2 K, Liquid	–	–	356.8	–	3.26e-08
323.15 K, Liquid	–	1.36e-07	–	4.23	–
323.18 K, Liquid	–	–	315.5	–	3.14e-08
332.72 K, Liquid	–	–	275.1	–	2.95e-08
333.15 K, Liquid	–	1.22e-07	–	3.23	–
342.68 K, Liquid	–	–	231.6	–	2.76e-08
343.15 K, Liquid	–	1.08e-07	–	2.3	–
345.66 K, Gas	–	–	92.5	–	1.01e-07
348.02 K, Liquid	–	–	208.4	–	2.66e-08
348.15 K, Gas	–	–	90.6	–	9.3e-08
350.65 K, Gas	–	–	89.4	–	8.46e-08
353.02 K, Liquid	–	–	185.5	–	2.51e-08
353.15 K, Gas	–	–	87.1	–	7.64e-08
353.15 K, Liquid	–	9.43e-08	–	1.42	–
355.64 K, Gas	–	–	85.1	–	6.9e-08
358.09 K, Liquid	–	–	160.8	–	2.36e-08
358.14 K, Gas	–	–	82.9	–	6.06e-08
358.15 K, Liquid	–	8.74e-08	–	1.02	–
360.64 K, Gas	–	–	80.4	–	5.25e-08
363.09 K, Liquid	–	–	134.7	–	2.11e-08
363.14 K, Gas	–	–	77.9	–	4.41e-08
363.15 K, Liquid	–	8.08e-08	–	0.644	–
365.63 K, Gas	–	–	75.2	–	3.6e-08
365.9 K, Liquid	–	–	118.5	–	1.92e-08
367.67 K, Gas	–	–	72.8	–	2.91e-08
368.08 K, Liquid	–	–	106.1	–	1.72e-08
368.15 K, Liquid	–	7.34e-08	–	0.314	–
369.47 K, Gas	–	–	70.5	–	2.26e-08
370.15 K, Liquid	–	7.03e-08	–	0.2	–
370.2 K, Liquid	–	–	92.6	–	1.42e-08
370.76 K, Gas	–	–	68.7	–	1.78e-08
371.15 K, Liquid	–	6.79e-08	–	0.145	–
371.41 K, Liquid	–	–	83.8	–	1.21e-08
371.96 K, Gas	–	–	67	–	1.32e-08
372.15 K, Liquid	–	6.74e-08	–	–	–
372.19 K, Liquid	–	–	78.2	–	9.91e-09
372.96 K, Gas	–	–	65.3	–	9.21e-09
372.99 K, Liquid	–	–	72.8	–	7.88e-09
373.5 K, Liquid	–	–	68.3	–	6.11e-09
373.95 K, Gas	–	–	63.6	–	4.9e-09
373.99 K, Liquid	–	–	65.3	–	4.34e-09
374.45 K, Gas	–	–	–	–	2.65e-09
374.49 K, Liquid	–	–	–	–	2.24e-09
374.65 K, Gas	–	–	–	–	1.73e-09
374.67 K, Liquid	–	–	–	–	1.36e-09
Liquid, Visual observation in an unstirred cell	374.9	–	–	–	–
